Tests used:
Format in all cases: in vivo, mice
p-CREB = assay: Western blot of phosphorylated CREB in spinal cord; conditions: escalated morphine treatment; SC
Protocol: (§1) Western blot analysis was used to detect expression of EphB receptors, ephrinBs, and phosphorylated NR2B, ERK and CREB proteins in the SC. A total of 108 mice were used for Western blotting experiments (SC from 4 mice were pooled for each sample and each group consisted of 3 samples). The lumbar segments of the SC were quickly extracted and immediately frozen in liquid nitrogen, and stored at −80° C. The procedure used to quantify temporal changes in protein levels was similar to that previously described (Bundesen et al, 2003). In brief, protein precipitation procedures in conjunction with Western blots were used to detect protein bands with an enhanced chemiluminescent (ECL) detection procedure. Sequential precipitation procedures were used on tissue samples that were lysed in ice-cold (4° C.) lysis buffer [50 mM Tris, pH 7.5, containing 150 mM NaCl, 1% Triton X-100, 0.5% deoxycholate, 0.1% SDS, 0.2 mM EDTA, 10 mM NaF, […], 0.4 mM 4-(2-aminoethyl)-benzenesulfonyl fluoride, and 1 mM sodium orthovanadate. The protein concentration of the lysates was estimated using the method of BCA (Pierce, Ill.), and the total protein content between samples was equalized. […] Data were analyzed with the Molecular Imager (Gel Doc™ XR, 170-8170) and the associated software Quantity One-4.6.5 (Bio-Rad Laboratories, Hercules, Calif.).

ephrinB2 = assay: Western blot of ephrinB2 in spinal cord; conditions: following escalating morphine treatment or morphine withdrawal; SC
Protocol: as §1

EphB1 receptor protein = assay: Western blot of EphB1 receptor protein in spinal cord; conditions: SC
Protocol: as §1

ephrinB1 = assay: Western blot of ephrinB1 in spinal cord; conditions: following escalating morphine treatment or morphine withdrawal; SC
Protocol: as §1

p-ERK = assay: Western blot of phosphorylated ERK in spinal cord; conditions: escalated morphine treatment; SC
Protocol: as §1

[1] = test system: phosphotyrosine (PY99) proteins; assay: Western blot of phosphotyrosine (PY99) proteins in spinal cord; conditions: following escalating morphine treatment or morphine withdrawal; SC
Protocol: as §1

CGRP = CGRP immunofluorescence in dorsal horn after morphine treatment and withdrawal; conditions: repeated morphine exposure (7 escalating i.p. doses)
Protocol: (§2) Mice were anesthetized and perfused transcardially with cold saline followed by ice-cold 4% paraformaldehyde solution. The lumbar segment of the SC was dissected out and post-fixed at 4° C. for 4 h with the paraformaldehyde solution, then the Histo Prep (Fisher Scientific, Fair Lawn, N.J.) embedded blocks were sectioned on a Leica CM1850 cryostat (Leica Microsystems, Germany). Sections (10 μm) were thaw-mounted on to glass slides and allowed to air dry. The immunofluorescence staining was performed as previously described (Kerr et al, 2000). Endogenous peroxidases were blocked by incubating tissue sections with 0.3% hydrogen peroxide for 30 min and 3% normal goat serum for 20 min. […]
(§3) The morphologic details of the immunofluorescence staining on SC were studied under a fluorescence microscope (Olympus BX51WI; Olympus America Inc., Melville, N.Y.). […] Fos-immunoreactive neurons were counted in blind fashion. The number of Fos-like immunoreactive neurons in DH (laminae I-VI) was determined by averaging the counts made in 20 SC sections (L4-L5) for each group. To obtain quantitative measurements of CGRP immunofluorescence, 15-20 fields covering the entire DH in each group were evaluated and photographed at the same exposure time to generate the raw data. Fluorescence intensities of the different groups were analyzed using MicroSuite image analysis software (Olympus America Inc.). […]

p-NR2B = assay: Western blot of phosphorylated NR2B in spinal cord; conditions: escalated morphine treatment; SC
Protocol: as §1

c-Fos = c-Fos immunostaining in dorsal horn during morphine withdrawal; conditions: naloxone challenge after escalating morphine treatment
Protocol: as §2, §3

Structure (SMILES)	level of p-CREB protein (p-CREB)	expression of ephrinB2 (ephrinB2)	expression of EphB1 receptor protein (EphB1 receptor protein; after escalating morphine treatment)	expression of ephrinB1 (ephrinB1)	level of p-ERK protein (p-ERK)	expression of phosphotyrosine (PY99) proteins [1]	expression of CGRP throughout the DH region of the SC (CGRP)	level of p-NR2B protein (p-NR2B)	number of Fos-like immunoreactive neurons in the dorsal horn (c-Fos)	morphine-induced increase in EphB1 receptor protein expression (EphB1 receptor protein; naloxone treatment after escalating morphine)
CN1CC[C@]23c4c5ccc(O)c4O[C@H]2[C@@H](O)C=C[C@H]3[C@H]1C5 [morphine]	significant increases	failed to show significant changes	significantly increased	failed to show significant changes	significant increases	failed to show significant changes	greatly increased	significant increases	–	–
C=CCN1CC[C@]23c4c5ccc(O)c4O[C@H]2C(=O)CC[C@@]3(O)[C@H]1C5 [naloxone]	–	–	–	–	–	–	–	–	significantly increased	did not significantly alter
